US11564923B2, “Compounds and pharmaceutical compositions thereof for the treatment of inflammatory disorders” (Galapagos NV, priority 2017, dated 2023)
pIC50: −log10 of the molar value. Structures can show the parent of a compound that is named as a salt.

Columns and labels:
[1] = molecular target: T1, Recombinant human TYK2 catalytic domain (amino acids 871-1187) (Homo sapiens, UniProt P29597); test: TYK2 radioactive assay polyGT substrate; assay type: biochemical; note: 0.1 µM ATP
T1 construct: catalytic domain (amino acids 871-1187)
T1 sequence (P29597 871-1187): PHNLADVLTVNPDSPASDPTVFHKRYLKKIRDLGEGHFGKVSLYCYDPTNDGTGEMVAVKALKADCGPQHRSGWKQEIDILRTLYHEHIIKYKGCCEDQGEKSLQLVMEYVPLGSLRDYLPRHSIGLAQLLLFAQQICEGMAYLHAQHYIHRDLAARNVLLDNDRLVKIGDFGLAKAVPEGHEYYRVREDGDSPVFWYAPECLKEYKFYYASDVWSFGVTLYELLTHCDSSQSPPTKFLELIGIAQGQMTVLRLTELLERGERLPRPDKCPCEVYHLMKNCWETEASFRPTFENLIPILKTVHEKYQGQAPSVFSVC
Procedure, shortened: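 Reaction at 30° C. for 120 min, ended with 150 mM phosphoric acid, washed, counted; percent inhibition scaled between vehicle and 10 μM staurosporine cpm.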

[2] = tested on: IFNα activation of STAT1 in PBMC; test: IFNα activation of STAT1 in PBMC; assay type: cell-based; conditions: Homo sapiens; IFNα activation of STAT1 in PBMC; average IC50; read-out: IFNα signaling inhibitory potency IC50
Procedure, shortened: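 Human PBMC, with red cells lysed by NH4Cl, were pre-treated with compound for 30 min at 37 °C and 5% CO2. They were then stimulated for 30 min with recombinant human IFNα at 5 ng/mL final.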

[3] = tested on: IL-12 activation of STAT4 in NK-92 cells; test: IL-12 activation of STAT4 in NK-92 cells using MSD as readout; assay type: cell-based; conditions: Homo sapiens, NK92; NK-92 cells, rhIL-12 25 ng/mL, MSD readout; read-out: IL12 pSTAT4 IC50
Protocol: IL-2 is added freshly to the medium with each medium refreshment step. Cells are cultured in a humidified incubator at 37° C. 5% CO2.
NK-92 cells are pre-incubated with test compounds or vehicle for 30 min at 37° C. 5% CO2. […] NK-92 cells are triggered with rhIL-12 for 45 min at 37° C. 5% CO2.
After 45 min of cytokine stimulation the cells are lysed by addition of 50 μL ice-cold lysis buffer (supplemented with the MSD kit). Plates are frozen at −80° C. for minimal 1 hour to lyse the cells completely. After thawing the levels of phospho-STAT4 are quantified using the Phospho-STAT4 (Tyr693) kit (MSD, Catalogue number K150PAD-2) according to the manufacturer's instructions. Electroluminescent signal is measured on the MSD reader.
The percentage inhibition is calculated as: […]
RLU (trigger/veh): Relative lumescent signal determined in presence of vehicle and trigger
RLU (test compound): Relative luminescent signal determined in presence of test compounds)
PIN values are plotted for compounds tested in dose-response and IC50 values are derived using LIMS Software applying non-linear regression (sigmoidal) curve fitting. The data are expressed as the average IC50 from different experiments.

[4] = molecular target: T2, Recombinant human JAK1 (catalytic domain, amino acids 866-1154) (Homo sapiens, UniProt P23458); test: JAK1 inhibition assay; assay type: biochemical; conditions: read-out: JAK1 potency IC50
T2 construct: catalytic domain, amino acids 866-1154
T2 sequence (P23458 866-1154): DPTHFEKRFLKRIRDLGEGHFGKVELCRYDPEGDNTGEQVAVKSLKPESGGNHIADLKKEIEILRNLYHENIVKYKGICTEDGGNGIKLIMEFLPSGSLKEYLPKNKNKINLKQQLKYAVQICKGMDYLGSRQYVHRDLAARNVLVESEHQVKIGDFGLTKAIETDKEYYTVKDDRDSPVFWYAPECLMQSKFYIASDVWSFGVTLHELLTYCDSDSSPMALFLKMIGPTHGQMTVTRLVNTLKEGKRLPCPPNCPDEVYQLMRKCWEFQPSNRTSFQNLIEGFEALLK

[5] = molecular target: T3, Recombinant human JAK2 (catalytic domain, amino acids 808-1132) (Homo sapiens, UniProt O60674); test: JAK2 inhibition assay; assay type: biochemical; conditions: read-out: JAK2 potency IC50; note: 0.7 µM ATP
T3 construct: catalytic domain, amino acids 808-1132
T3 sequence (O60674 808-1132): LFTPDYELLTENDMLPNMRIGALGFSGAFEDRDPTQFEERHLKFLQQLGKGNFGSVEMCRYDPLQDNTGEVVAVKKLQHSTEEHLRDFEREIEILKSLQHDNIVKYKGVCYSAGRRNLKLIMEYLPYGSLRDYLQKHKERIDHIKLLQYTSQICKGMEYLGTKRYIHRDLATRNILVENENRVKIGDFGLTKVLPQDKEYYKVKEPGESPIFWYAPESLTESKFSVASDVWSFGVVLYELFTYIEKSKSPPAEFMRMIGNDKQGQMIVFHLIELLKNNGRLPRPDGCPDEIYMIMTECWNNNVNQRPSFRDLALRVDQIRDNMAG

[6] = molecular target: Recombinant human JAK3 catalytic domain (amino acids 781-1124) (Homo sapiens, UniProt P52333); test: JAK3 inhibition assay; assay type: biochemical
Chain of Recombinant human JAK3 catalytic domain (amino acids 781-1124) (P52333 781-1124): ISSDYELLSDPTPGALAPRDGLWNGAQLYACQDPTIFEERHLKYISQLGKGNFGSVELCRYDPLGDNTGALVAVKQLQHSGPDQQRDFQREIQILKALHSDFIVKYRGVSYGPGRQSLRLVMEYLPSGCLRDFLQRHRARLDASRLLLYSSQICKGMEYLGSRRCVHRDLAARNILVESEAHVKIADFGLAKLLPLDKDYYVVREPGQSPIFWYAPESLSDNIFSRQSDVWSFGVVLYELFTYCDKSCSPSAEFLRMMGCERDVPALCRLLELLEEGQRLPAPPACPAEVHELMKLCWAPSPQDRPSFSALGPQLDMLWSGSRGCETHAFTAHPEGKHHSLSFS
Protocol: After 45 min at 30° C., reactions are stopped by adding 25 μL/well of 150 mM phosphoric acid. […] Plates are washed 6 times with 300 μL per well of a 75 mM phosphoric acid solution and the bottom of the plates is sealed. […] Kinase activity is calculated by subtracting counts per min (cpm) obtained in the presence of a positive control inhibitor (10 μM staurosporine) from cpm obtained in the presence of vehicle. The ability of a test compound to inhibit this activity (or percentage inhibition) is determined as: […]
cpm test compound=cpm determined for sample with test compound present cpm control=cpm determined for sample with positive control inhibitor cpm vehicle=cpm determined in the presence of vehicle
Dose dilution series were prepared for the compounds enabling the testing of dose-response effects in the JAK3 assay and the calculation of the IC50 for each compound. Each compound is routinely tested at concentration of 20 μM followed by a 1/5 serial dilution, 10 points in a final concentration of 1% DMSO.

[7] = tested on: IL-12 activation of STAT4 in NK-92 cells; test: IL-12 activation of STAT4 in NK-92 cells using AphaLISA SureFire technology; assay type: cell-based; conditions: Homo sapiens, NK92; IL-12 activation of STAT4 in NK-92 cells, AlphaLISA SureFire; average IC50; read-out: IL12 pSTAT4 IC50
Procedure, shortened: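 NK-92 cells, starved of rhIL-2 overnight, were stimulated with rhIL-12 for 30 min at 37 °C with test compounds, then lysed. Phospho-STAT4 (Tyr693) was read by AlphaLISA SureFire. Percent inhibition versus the vehicle-plus-trigger signal was fitted by sigmoidal nonlinear regression to give IC50, averaged over experiments.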

SMILES	pIC50 [1]	pIC50 [2]	pIC50 [3]	pIC50 [4]	pIC50 [5]	pIC50 [6]	pIC50 [7]
Cc1cc(C#N)ncc1Oc1cc(Nc2ccc(C(=O)NCC(C)O)cn2)c2ncn(C)c2n1 (stereo not drawn) [Compound 24, 6-[5-(6-Cyano-4-methyl-pyridin-3-yloxy)-3-methyl-3H-imidazo[4,5-b]pyridin-7-ylamino]-N-(2-hydroxy-propyl)-nicotinamide]	8.05	6.82	5.47	–	–	–	–
Cc1cc(C#N)ncc1Oc1cc(Nc2ccc(CN)cc2)c2ncn(C)c2n1 [Compound 57, 5-[7-[4-(aminomethyl)anilino]-3-methyl-imidazo[4,5-b]pyridin-5-yl]oxy-4-methyl-pyridine-2-carbonitrile formate salt]	7.34	6.39	5.13	–	–	–	–
Cc1cc(C#N)ncc1Oc1cc(Nc2ccc(S(C)(=O)=O)cc2)c2ncn(C)c2n1 [Compound 60, 4-methyl-5-[3-methyl-7-(4-methylsulfonylanilino)imidazo[4,5-b]pyridin-5-yl]oxy-pyridine-2-carbonitrile]	8.01	7.14	5.94	–	–	–	–
CCNC(c1ccc(Nc2cc(Oc3cnc(C#N)cc3C)nc3c2ncn3C)nc1)C(F)(F)F (stereo not drawn) [Compound 80, 5-[7-[[5-[1-(ethylamino)-2,2,2-trifluoroethyl]pyridin-2-yl]amino]-3-methylimidazo[4,5-b]pyridin-5-yl]oxy-4-methylpyridine-2-carbonitrile]	8.65	7.03	–	7.70	8.28	6.41	7.08
Cc1cc(C#N)ncc1Oc1cc(Nc2ccc(CN(C)C)cn2)c2ncn(C)c2n1 [Compound 81, 5-[7-[[5-[(dimethylamino)methyl]pyridin-2-yl]amino]-3-methylimidazo[4,5-b]pyridin-5-yl]oxy-4-methylpyridine-2-carbonitrile formate salt]	8.17	7.25	–	6.82	7.98	6.41	6.65
COc1ccc(Nc2cc(Oc3cnc(C#N)cc3C)nc3c2ncn3C)nc1 [Compound 84, 5-[7-[(5-methoxypyridin-2-yl)amino]-3-methylimidazo[4,5-b]pyridin-5-yl]oxy-4-methylpyridine-2-carbonitrile]	7.96	6.75	–	7.24	7.34	6.04	7.06
Cc1cc(C#N)ncc1Oc1cc(Nc2ccc(N3CCOC[C@@H]3C)cn2)c2ncn(C)c2n1 [Compound 85, 4-methyl-5-[3-methyl-7-[[5-[(3S)-3-methylmorpholin-4-yl]pyridin-2-yl]amino]imidazo[4,5-b]pyridin-5-yl]oxypyridine-2-carbonitrile]	8.32	6.94	–	7.52	7.98	6.32	6.81
Cc1cc(C#N)ncc1Oc1cc(Nc2ccc(OC3CCN(C)CC3)cn2)c2ncn(C)c2n1 [Compound 86, 4-methyl-5-[3-methyl-7-[[5-(1-methylpiperidin-4-yl)oxypyridin-2-yl]amino]imidazo[4,5-b]pyridin-5-yl]oxypyridine-2-carbonitrile]	8.04	6.92	–	6.70	7.64	6.35	6.30
Cc1cc(C#N)ncc1Oc1cc(Nc2ccc(C3CCOCC3)cn2)c2ncn(C)c2n1 [Compound 87, 4-methyl-5-[3-methyl-7-[[5-(oxan-4-yl)pyridin-2-yl]amino]imidazo[4,5-b]pyridin-5-yl]oxypyridine-2-carbonitrile]	8.06	6.80	–	7.14	7.41	6.01	6.58
Cc1cc(C#N)ncc1Oc1cc(Nc2ccc(C3(O)COC3)cc2)c2ncn(C)c2n1 [Compound 89, 5-[7-[4-(3-hydroxyoxetan-3-yl)anilino]-3-methylimidazo[4,5-b]pyridin-5-yl]oxy-4-methylpyridine-2-carbonitrile]	7.96	6.58	–	7.15	6.96	5.70	6.32
CC(C)[C@@H](Nc1cc(Nc2cc(N)ncn2)c2ncn(C)c2n1)C(F)(F)F [Compound 98, N7-(6-aminopyrimidin-4-yl)-3-methyl-N5-[(1R)-2-methyl-1-(trifluoromethyl)propyl]imidazo[4,5-b]pyridine-5,7-diamine]	8.52	7.42	–	7.55	8.20	7.32	7.72
Cc1cc(C#N)ncc1Oc1cc(Nc2ccc(C(=O)N3CC(O)C3)nn2)c2ncn(C)c2n1 [Compound 115, 5-[7-[[6-(3-hydroxyazetidine-1-carbonyl)pyridazin-3-yl]amino]-3-methyl-imidazo[4,5-b]pyridin-5-yl]oxy-4-methyl-pyridine-2-carbonitrile]	8.05	6.84	–	6.97	7.54	5.67	6.01
COC1CN(C(=O)c2ccc(Nc3cc(Oc4cnc(C#N)cc4C)nc4c3ncn4C)nn2)C1 [Compound 116, 5-[7-[[6-(3-methoxyazetidine-1-carbonyl)pyridazin-3-yl]amino]-3-methyl-imidazo[4,5-b]pyridin-5-yl]oxy-4-methyl-pyridine-2-carbonitrile]	8.27	6.95	–	6.82	7.55	5.92	7.10
COCC1CN(C(=O)c2ccc(Nc3cc(Oc4cnc(C#N)cc4C)nc4c3ncn4C)nn2)C1 [Compound 117, 5-[7-[[6-[3-(methoxymethyl)azetidine-1-carbonyl]pyridazin-3-yl]amino]-3-methyl-imidazo[4,5-b]pyridin-5-yl]oxy-4-methyl-pyridine-2-carbonitrile]	8.07	6.83	–	6.69	7.49	5.69	6.74
Cc1cc(C#N)ncc1Oc1cc(Nc2ccc(N3CCNCC3)cn2)c2ncn(C)c2n1 [Compound 180, 4-methyl-5-[3-methyl-7-[(5-piperazin-1-yl-2-pyridyl)amino]imidazo[4,5-b]pyridin-5-yl]oxy-pyridine-2-carbonitrile]	8.18	7.08	–	7.09	7.74	6.39	6.11
Cc1cc(C#N)ncc1Oc1cc(Nc2cnn(CCN3CCOCC3)c2)c2ncn(C)c2n1 [Compound 186, 4-methyl-5-[3-methyl-7-[[1-(2-morpholinoethyl)pyrazol-4-yl]amino]imidazo[4,5-b]pyridin-5-yl]oxy-pyridine-2-carbonitrile]	8.20	6.64	–	7.11	7.65	6.59	6.62
